Measurements taken from US11076594B2, “Pyrazolone compound or salt thereof, preparation method therefor, herbicide composition and use thereof” (QINGDAO KINGAGROOT CHEMICAL COMPOUNDS CO., LTD., priority 2015, dated 2021).

Columns and labels:
Assay type in all cases: in vivo
alopecurus japonicas = assay: wheat field resistant weed control, greenhouse spray at 4 leaf stage; set-up: key: Level 10: completely dead; Level 9: above 95% growth control rate; Level 8: above 90% growth control rate; Level 7: above 80% growth control rate; Level 6: above 70% growth control rate; Level 5: above 60% growth control rate; Level 4: above 50% growth control rate; Level 3: above 20% growth control rate; Level 2: 5%-20% growth control rate; Level 1: below 5% growth control rate; conditions: sprayed at 4 leaf stage, 4 weeks after treatment, resistant to ALS and ACCase inhibitor herbicides
Method: The activity level standard of harmful plant destruction (i.e. growth control rate) is as follows:
The above described growth control rate is fresh weight control rate.
The seeds of alopecurus japonicas, flixweed, shepherd's purse, corn gromwell, chickweed, beckmannia syzigachne, and annual ryegrass and wheat seeds were put into a plastic pot loaded with soil, and then covered with 0.5-2 cm soil, the seeds were allowed to grow in good greenhouse environment. The test plants were treated at 4 leaf stage 2-3 weeks after sowing. The test compounds of the present invention were dissolved in acetone respectively, then added with methyl oleate emulsion and diluted by certain amount of water to certain concentration. The solution was sprayed to the plant with a sprayer. Then the plants were cultured for 4 weeks in greenhouse.

rorippa indica = assay: weed control effect in post-emergence stage (Table 1); set-up: key: Level 10: completely dead; Level 9: above 95% growth control rate; Level 8: above 90% growth control rate; Level 7: above 80% growth control rate; Level 6: above 70% growth control rate; Level 5: above 60% growth control rate; Level 4: above 50% growth control rate; Level 3: above 20% growth control rate; Level 2: 5%-20% growth control rate; Level 1: below 5% growth control rate; conditions: post-emergence spray at 4-5 leaf stage, 250 g/ha active ingredient with 450 kg/ha water, rated after 3 weeks in greenhouse
In short: (§1)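 Fresh-weight-based growth control rate was assessed 3 weeks after spraying. Test compound, dissolved in acetone, with tween 80 added and diluted in water, was sprayed onto greenhouse-grown, pot-cultured weeds and crop plants at 4-5 leaves, 2-3 weeks post-sowing.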

bidens bipinnata = assay: as above; set-up: key: Level 10: completely dead; Level 9: above 95% growth control rate; Level 8: above 90% growth control rate; Level 7: above 80% growth control rate; Level 6: above 70% growth control rate; Level 5: above 60% growth control rate; Level 4: above 50% growth control rate; Level 3: above 20% growth control rate; Level 2: 5%-20% growth control rate; Level 1: below 5% growth control rate; conditions: post-emergence spray at 4-5 leaf stage, 250 g/ha active ingredient with 450 kg/ha water, rated after 3 weeks in greenhouse
In short: as §1

foxtail = assay: as above; set-up: key: Level 10: completely dead; Level 9: above 95% growth control rate; Level 8: above 90% growth control rate; Level 7: above 80% growth control rate; Level 6: above 70% growth control rate; Level 5: above 60% growth control rate; Level 4: above 50% growth control rate; Level 3: above 20% growth control rate; Level 2: 5%-20% growth control rate; Level 1: below 5% growth control rate; conditions: post-emergence spray at 4-5 leaf stage, 250 g/ha active ingredient with 450 kg/ha water, rated after 3 weeks in greenhouse
In short: as §1

crab grass = assay: as above; set-up: key: Level 10: completely dead; Level 9: above 95% growth control rate; Level 8: above 90% growth control rate; Level 7: above 80% growth control rate; Level 6: above 70% growth control rate; Level 5: above 60% growth control rate; Level 4: above 50% growth control rate; Level 3: above 20% growth control rate; Level 2: 5%-20% growth control rate; Level 1: below 5% growth control rate; conditions: post-emergence spray at 4-5 leaf stage, 250 g/ha active ingredient with 450 kg/ha water, rated after 3 weeks in greenhouse
In short: as §1

Indian mallow = assay: as above; set-up: key: Level 10: completely dead; Level 9: above 95% growth control rate; Level 8: above 90% growth control rate; Level 7: above 80% growth control rate; Level 6: above 70% growth control rate; Level 5: above 60% growth control rate; Level 4: above 50% growth control rate; Level 3: above 20% growth control rate; Level 2: 5%-20% growth control rate; Level 1: below 5% growth control rate; conditions: post-emergence spray at 4-5 leaf stage, 250 g/ha active ingredient with 450 kg/ha water, rated after 3 weeks in greenhouse
In short: as §1

echinochloa = assay: as above; set-up: key: Level 10: completely dead; Level 9: above 95% growth control rate; Level 8: above 90% growth control rate; Level 7: above 80% growth control rate; Level 6: above 70% growth control rate; Level 5: above 60% growth control rate; Level 4: above 50% growth control rate; Level 3: above 20% growth control rate; Level 2: 5%-20% growth control rate; Level 1: below 5% growth control rate; conditions: post-emergence spray at 4-5 leaf stage, 250 g/ha active ingredient with 450 kg/ha water, rated after 3 weeks in greenhouse
In short: as §1

rice = assay: post-emergence stage experiment, crop (Table 1); conditions: post-emergence spray at 4-5 leaf stage, 250 g/ha active ingredient with 450 kg/ha water, rated after 3 weeks in greenhouse
In short: as §1

flixweed = assay: wheat field resistant broadleaf weed control, greenhouse spray at 4 leaf stage; set-up: key: Level 10: completely dead; Level 9: above 95% growth control rate; Level 8: above 90% growth control rate; Level 7: above 80% growth control rate; Level 6: above 70% growth control rate; Level 5: above 60% growth control rate; Level 4: above 50% growth control rate; Level 3: above 20% growth control rate; Level 2: 5%-20% growth control rate; Level 1: below 5% growth control rate; conditions: 250 g/ha of the active substance; 4 weeks after treatment; ALS inhibitor resistant
In short: (§2)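 Scored as fresh weight control rate 4 weeks after treatment: greenhouse-grown weeds at 4 leaf stage (2–3 weeks after sowing) received a spray of test compound dissolved in acetone, mixed with methyl oleate emulsion and water-diluted.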

shepherd's purse = assay: as above; set-up: key: Level 10: completely dead; Level 9: above 95% growth control rate; Level 8: above 90% growth control rate; Level 7: above 80% growth control rate; Level 6: above 70% growth control rate; Level 5: above 60% growth control rate; Level 4: above 50% growth control rate; Level 3: above 20% growth control rate; Level 2: 5%-20% growth control rate; Level 1: below 5% growth control rate; conditions: 250 g/ha of the active substance; 4 weeks after treatment; ALS inhibitor resistant
In short: as §2

corn gromwell = assay: as above; set-up: key: Level 10: completely dead; Level 9: above 95% growth control rate; Level 8: above 90% growth control rate; Level 7: above 80% growth control rate; Level 6: above 70% growth control rate; Level 5: above 60% growth control rate; Level 4: above 50% growth control rate; Level 3: above 20% growth control rate; Level 2: 5%-20% growth control rate; Level 1: below 5% growth control rate; conditions: 250 g/ha of the active substance; 4 weeks after treatment; ALS inhibitor resistant
In short: as §2

chickweed = assay: as above; set-up: key: Level 10: completely dead; Level 9: above 95% growth control rate; Level 8: above 90% growth control rate; Level 7: above 80% growth control rate; Level 6: above 70% growth control rate; Level 5: above 60% growth control rate; Level 4: above 50% growth control rate; Level 3: above 20% growth control rate; Level 2: 5%-20% growth control rate; Level 1: below 5% growth control rate; conditions: 250 g/ha of the active substance; 4 weeks after treatment; ALS inhibitor resistant
In short: as §2

corn = assay: post-emergence stage experiment, crop (Table 1); conditions: post-emergence spray at 4-5 leaf stage, 250 g/ha active ingredient with 450 kg/ha water, rated after 3 weeks in greenhouse
In short: as §1

wheat [1] = assay: post-emergence stage experiment, crop (Table 1); conditions: post-emergence spray at 4-5 leaf stage, 250 g/ha active ingredient with 450 kg/ha water, rated after 3 weeks in greenhouse
In short: as §1

wheat [2] = assay: wheat field test, crop selectivity, greenhouse spray at 4 leaf stage; conditions: 4 weeks after treatment
In short: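 Potted plants grown in greenhouse were sprayed at the 4 leaf stage, 2–3 weeks post-sowing, with compound in acetone plus methyl oleate emulsion diluted in water. After 4 weeks of further greenhouse culture, growth control was scored as fresh weight control rate.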

[3] = 2 g/mu, sprayed at 4 leaf stage
[4] = 4 g/mu, sprayed at 4 leaf stage
[5] = 8 g/mu, sprayed at 4 leaf stage
[6] = 16 g/mu, sprayed at 4 leaf stage
[7] = 32 g/mu, sprayed at 4 leaf stage
[8] = 250 g/ha of the active substance

Row | effect on crop, Wheat (level) (wheat [1]) | Structure (SMILES) | Alopecurus japonicas weed controlling effect (activity level) (alopecurus japonicas; 1 g/mu) | Alopecurus japonicas weed controlling effect (activity level) (alopecurus japonicas; 2 g/mu) | Alopecurus japonicas weed controlling effect (activity level) (alopecurus japonicas; 4 g/mu) | Alopecurus japonicas weed controlling effect (activity level) (alopecurus japonicas; 8 g/mu) | weed control effect, Rorippa indica (level) (rorippa indica) | weed control effect, Bidens bipinnata (level) (bidens bipinnata) | weed control effect, Green foxtail (level) (foxtail) | weed control effect, Crab grass (level) (crab grass) | weed control effect, Indian mallow (level) (Indian mallow) | weed control effect, Echinochloa (level) (echinochloa) | effect on crop, Rice (level) (rice) | flixweed weed controlling effect (activity level) (flixweed) | shepherd's purse weed controlling effect (activity level) (shepherd's purse) | corn gromwell weed controlling effect (activity level) (corn gromwell) | chickweed weed controlling effect (activity level) (chickweed) | effect on crop, Corn (level) (corn) | Wheat (activity level, crop damage) (wheat [2]; [3]) | Wheat (activity level, crop damage) (wheat [2]; [4]) | Wheat (activity level, crop damage) (wheat [2]; [8]) | other results
1 | 0 | Cn1nc(C2CC2)c(C(=O)c2ccc(C(F)(F)F)c(N3CCCCC3=O)c2Cl)c1O [Compound 046] | 6 (Level 6: above 70% growth control rate) | 9 (Level 9: above 95% growth control rate) | 10 | 10 | 10 | 2 (Level 2: 5%-20% growth control rate) | 10 | 6 (Level 6: above 70% growth control rate) | 10 | 6 (Level 6: above 70% growth control rate) | 5 (Level 5: above 60% growth control rate) | 10 | 10 | 10 | 10 | 4 (Level 4: above 50% growth control rate) | 0 | 0 | 0 | Wheat (activity level, crop damage) (wheat [2]; [5]): 0; Wheat (activity level, crop damage) (wheat [2]; [6]): 0; Wheat (activity level, crop damage) (wheat [2]; [7]): 1 (Level 1: below 5% growth control rate)
2 | 0 | Cn1cc(C(=O)Oc2c(C(=O)c3ccc(C(F)(F)F)c(N4CCCCCC4=O)c3Cl)c(C3CC3)nn2C)cn1 [Compound 061] | – | – | – | – | 10 | 7 (Level 7: above 80% growth control rate) | 1 (Level 1: below 5% growth control rate) | 4 (Level 4: above 50% growth control rate) | 10 | 5 (Level 5: above 60% growth control rate) | 1 (Level 1: below 5% growth control rate) | 10 | 10 | 10 | 10 | 1 (Level 1: below 5% growth control rate) | – | – | 0 | –
3 | 0 | Cc1cnn(-c2c(C(F)(F)F)ccc(C(=O)c3cnn(C)c3OC(=O)c3cn(C)nc3C)c2Cl)c1 [Compound 082] | – | – | – | – | 10 | 4 (Level 4: above 50% growth control rate) | 10 | 6 (Level 6: above 70% growth control rate) | 9 (Level 9: above 95% growth control rate) | 10 | 3 (Level 3: above 20% growth control rate) | 10 | 10 | 10 | 10 | 3 (Level 3: above 20% growth control rate) | – | – | 0 | –

Row | Structure (SMILES) | effect on crop, Wheat (level) (wheat [1]) | Alopecurus japonicas weed controlling effect (activity level) (alopecurus japonicas; 1 g/mu) | Alopecurus japonicas weed controlling effect (activity level) (alopecurus japonicas; 2 g/mu) | Alopecurus japonicas weed controlling effect (activity level) (alopecurus japonicas; 4 g/mu) | Alopecurus japonicas weed controlling effect (activity level) (alopecurus japonicas; 8 g/mu) | weed control effect, Rorippa indica (level) (rorippa indica) | weed control effect, Bidens bipinnata (level) (bidens bipinnata) | weed control effect, Green foxtail (level) (foxtail) | weed control effect, Crab grass (level) (crab grass) | weed control effect, Indian mallow (level) (Indian mallow) | weed control effect, Echinochloa (level) (echinochloa) | effect on crop, Rice (level) (rice) | flixweed weed controlling effect (activity level) (flixweed) | shepherd's purse weed controlling effect (activity level) (shepherd's purse) | corn gromwell weed controlling effect (activity level) (corn gromwell) | chickweed weed controlling effect (activity level) (chickweed) | effect on crop, Corn (level) (corn) | Wheat (activity level, crop damage) (wheat [2]; [3]) | Wheat (activity level, crop damage) (wheat [2]; [4]) | Wheat (activity level, crop damage) (wheat [2]; [8]) | other results
4 | CCOc1c(C(=O)Oc2c(C(=O)c3ccc(C(F)(F)F)c(N4CCCCC4=O)c3Cl)c(C3CC3)nn2C)cnn1C [Compound 048] | 1 (Level 1: below 5% growth control rate) | 8 (Level 8: above 90% growth control rate) | 10 | 10 | 10 | 10 | 4 (Level 4: above 50% growth control rate) | 8 (Level 8: above 90% growth control rate) | 7 (Level 7: above 80% growth control rate) | 10 | 6 (Level 6: above 70% growth control rate) | 5 (Level 5: above 60% growth control rate) | 10 | 10 | 10 | 10 | 3 (Level 3: above 20% growth control rate) | 0 | 0 | 0 | Wheat (activity level, crop damage) (wheat [2]; [5]): 0; Wheat (activity level, crop damage) (wheat [2]; [6]): 1 (Level 1: below 5% growth control rate); Wheat (activity level, crop damage) (wheat [2]; [7]): 4 (Level 4: above 50% growth control rate)
